{
  "source": "patent US10913727B2",
  "about": "“Modulators of the integrated stress pathway” (Calico Life Sciences LLC, priority 2016, dated 2021)",
  "data": [
    {"tested_on": "HEK293T cells carrying the ATF4 luciferase reporter", "experiment": "ATF4-Luc assay, in vitro model of Vanishing Cell White Matter Disease (VWMD)", "assay_type": "cell-based", "settings": "Homo sapiens, HEK-293T, 1 μg/mL tunicamycin, 7 hours, One Glo luminescence", "method_in_brief": "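Stable HEK293T line with human ATF4 5′-UTR–firefly luciferase reporter treated with 1 μg/mL tunicamycin plus 200 nM compound for 7 h. Luminescence read; EC50 derived.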", "units": {"EC50": "nM"}, "values": [
      {"compound": "O=C(COc1ccc(Cl)c(F)c1)NC12CC(NC(=O)c3nc(C4CC4)cs3)(C1)C2", "note": "[Compound 590, N-{3-[2-(4-chloro-3-fluorophenoxy)acetamido]bicyclo[1.1.1]pentan-1-yl}-4-cyclopropyl-1,3-thiazole-2-carboxamide]", "EC50": "50 to 250"},
      {"compound": "Cc1cc(C(=O)NC23CC(NC(=O)COc4ccc(Cl)c(Cl)c4)(C2)C3)sn1", "note": "[Compound 617, N-{3-[2-(3,4-dichlorophenoxy)acetamido]bicyclo[1.1.1]pentan-1-yl}-3-methyl-1,2-thiazole-5-carboxamide]", "EC50": "< 50"},
      {"compound": "CS(=O)(=O)Nc1cccc(C(=O)NC23CC(NC(=O)COc4ccc(Cl)c(F)c4)(C2)C3)c1", "note": "[Compound 851, N-{3-[2-(4-chloro-3-fluorophenoxy)acetamido]bicyclo[1.1.1]pentan-1-yl}-3-[(methanesulfonyl)amino]benzamide]", "EC50": "250 to 1000"},
      {"compound": "O=C(COc1ccc(Cl)c(F)c1)NC12CC(NC(=O)c3nc4ccccc4s3)(C1)C2", "note": "[Compound 907, N-{3-[2-(4-chloro-3-fluorophenoxy)acetamido]bicyclo[1.1.1]pentan-1-yl}-1,3-benzothiazole-2-carboxamide]", "EC50": "50 to 250"},
      {"compound": "O=C(COc1ccc(Cl)c(F)c1)NC12CC(Nc3cc(-c4ccc(Cl)cc4)ccn3)(C1)C2", "note": "[Compound 415, 2-(4-chloro-3-fluorophenoxy)-N-(3-{[4-(4-chlorophenyl)pyridin-2-yl]amino}bicyclo[1.1.1]pentan-1-yl)acetamide]", "EC50": "> 2000"},
      {"compound": "O=C(COc1ccc(Cl)c(F)c1)NC12CC(NC(=O)c3ccon3)(C1)C2", "note": "[Compound 820, N-{3-[2-(4-chloro-3-fluorophenoxy)acetamido]bicyclo[1.1.1]pentan-1-yl}-1,2-oxazole-3-carboxamide]", "EC50": "> 2000"},
      {"compound": "Cc1nnc(C(=O)NC23CC(NC(=O)COc4ccc(Cl)c(F)c4)(C2)C3)o1", "note": "[Compound 354, N-{3-[2-(4-chloro-3-fluorophenoxy)acetamido]bicyclo[1.1.1]pentan-1-yl}-5-methyl-1,3,4-oxadiazole-2-carboxamide]", "EC50": "1000 to 2000"},
      {"compound": "O=C(COc1ccc(Cl)c(F)c1)NC12CCC(NC(=O)c3ccc(C(F)(F)F)o3)(CC1)CC2O", "note": "(stereo not drawn) [Compound 625, N-{4-[2-(4-chloro-3-fluorophenoxy)acetamido]-3-hydroxybicyclo[2.2.2]octan-1-yl}-5-(trifluoromethyl)furan-2-carboxamide]", "EC50": "250 to 1000"},
      {"compound": "Cc1cccc(C(=O)NC23CC(NC(=O)COc4ccc(Cl)c(F)c4)(C2)C3)c1", "note": "[Compound 535, N-{3-[2-(4-chloro-3-fluorophenoxy)acetamido]bicyclo[1.1.1]pentan-1-yl}-3-methylbenzamide]", "EC50": "50 to 250"},
      {"compound": "Cc1ccc(F)c(C(=O)NC23CC(NC(=O)COc4ccc(Cl)c(F)c4)(C2)C3)n1", "note": "[Compound 832, N-{3-[2-(4-chloro-3-fluorophenoxy)acetamido]bicyclo[1.1.1]pentan-1-yl}-3-fluoro-6-methylpyridine-2-carboxamide]", "EC50": "50 to 250"},
      {"compound": "O=C(COc1ccc(Cl)c(F)c1)NC12CCC(NC(=O)c3ccc(OC(F)(F)F)cn3)(CC1)C[C@@H]2O", "note": "[Compound 682, N-{(3S)-4-[2-(4-chloro-3-fluorophenoxy)acetamido]-3-hydroxybicyclo[2.2.2]octan-1-yl}-5-(trifluoromethoxy)pyridine-2-carboxamide]", "EC50": "< 50"},
      {"compound": "CN(C)Cc1cccc(C(=O)NC23CC(NC(=O)COc4ccc(Cl)c(F)c4)(C2)C3)c1", "note": "[Compound 553, N-{3-[2-(4-chloro-3-fluorophenoxy)acetamido]bicyclo[1.1.1]pentan-1-yl}-3-[(dimethylamino)methyl]benzamide]", "EC50": "> 2000"},
      {"compound": "O=C(COc1ccc(Cl)c(F)c1)NC12CC(NC(=O)c3cnc(-c4ccc(C(F)(F)F)nc4)o3)(C1)C2", "note": "[Compound 107, N-{3-[2-(4-chloro-3-fluorophenoxy)acetamido]bicyclo[1.1.1]pentan-1-yl}-2-[6-(trifluoromethyl)pyridin-3-yl]-1,3-oxazole-5-carboxamide]", "EC50": "< 50"},
      {"compound": "Cn1cc(C(=O)NC23CC(NC(=O)COc4ccc(Cl)c(F)c4)(C2)C3)c(C(F)(F)F)n1", "note": "[Compound 868, N-{3-[2-(4-chloro-3-fluorophenoxy)acetamido]bicyclo[1.1.1]pentan-1-yl}-1-methyl-3-(trifluoromethyl)-1H-pyrazole-4-carboxamide]", "EC50": "> 2000"},
      {"compound": "O=C(COc1ccc(Cl)c(F)c1)NC12CC(NC(=O)c3ccc4cc(F)ccc4n3)(C1)C2", "note": "[Compound 929, N-{3-[2-(4-chloro-3-fluorophenoxy)acetamido]bicyclo[1.1.1]pentan-1-yl}-6-fluoroquinoline-2-carboxamide]", "EC50": "< 50"},
      {"compound": "Cn1cc(C(=O)NC23CCC(NC(=O)COc4ccc(Cl)c(F)c4)(CC2)C(O)C3)cn1", "note": "(stereo not drawn) [Compound 626, N-{4-[2-(4-chloro-3-fluorophenoxy)acetamido]-3-hydroxybicyclo[2.2.2]octan-1-yl}-1-methyl-1H-pyrazole-4-carboxamide]", "EC50": "50 to 250"},
      {"compound": "O=C(COc1ccc(Cl)c(F)c1)NC12CCC(NC(=O)c3cnc(C(F)F)cn3)(C1)C2", "note": "[Compound 296, N-{4-[2-(4-chloro-3-fluorophenoxy)acetamido]bicyclo[2.1.1]hexan-1-yl}-5-(difluoromethyl)pyrazine-2-carboxamide]", "EC50": "50 to 250"},
      {"compound": "CC(C)(C)[Si](C)(C)OCCOc1ccc(C(=O)NC23CC(NC(=O)COc4ccc(Cl)c(F)c4)(C2)C3)cn1", "note": "[Compound 157, 6-(2-{[tert-butyl(dimethyl)silyl]oxy}ethoxy)-N-{3-[2-(4-chloro-3-fluorophenoxy)acetamido]bicyclo[1.1.1]pentan-1-yl}pyridine-3-carboxamide]", "EC50": "> 2000"},
      {"compound": "Cc1nn(C)c2sc(C(=O)NC34CC(NC(=O)COc5ccc(Cl)c(F)c5)(C3)C4)cc12", "note": "[Compound 878, N-{3-[2-(4-chloro-3-fluorophenoxy)acetamido]bicyclo[1.1.1]pentan-1-yl}-1,3-dimethyl-1H-thieno[2,3-c]pyrazole-5-carboxamide]", "EC50": "250 to 1000"},
      {"compound": "Cc1ccc2nc(C(=O)NC34CCC(NC(=O)COc5ccc(Cl)c(F)c5)(CC3)C(O)C4)cn2c1", "note": "(stereo not drawn) [Compound 597, N-{4-[2-(4-chloro-3-fluorophenoxy)acetamido]-3-hydroxybicyclo[2.2.2]octan-1-yl}-6-methylimidazo[1,2-a]pyridine-2-carboxamide]", "EC50": "250 to 1000"},
      {"compound": "Cc1cccnc1C(=O)NC12CC(NC(=O)COc3ccc(Cl)c(F)c3)(C1)C2", "note": "[Compound 368, N-{3-[2-(4-chloro-3-fluorophenoxy)acetamido]bicyclo[1.1.1]pentan-1-yl}-3-methylpyridine-2-carboxamide]", "EC50": "250 to 1000"},
      {"compound": "O=C(COc1ccc(Cl)c(F)c1)NC12CC(NC(=O)c3ccc4cnccc4n3)(C1)C2", "note": "[Compound 659, N-{3-[2-(4-chloro-3-fluorophenoxy)acetamido]bicyclo[1.1.1]pentan-1-yl}-1,6-naphthyridine-2-carboxamide]", "EC50": "50 to 250"},
      {"compound": "COc1ccc(C(=O)NC23CC(NC(=O)COc4ccc(Cl)c(F)c4)(C2)C3)c(F)c1", "note": "[Compound 518, N-{3-[2-(4-chloro-3-fluorophenoxy)acetamido]bicyclo[1.1.1]pentan-1-yl}-2-fluoro-4-methoxybenzamide]", "EC50": "250 to 1000"},
      {"compound": "O=C(COc1ccc(Cl)c(F)c1)NC12CCC(NC(=O)c3cccc(C(F)(F)F)n3)(CC1)CC2O", "note": "(stereo not drawn) [Compound 941, N-{4-[2-(4-chloro-3-fluorophenoxy)acetamido]-3-hydroxybicyclo[2.2.2]octan-1-yl}-6-(trifluoromethyl)pyridine-2-carboxamide]", "EC50": "< 50"},
      {"compound": "CCc1cc(C(=O)NC23CCC(NC(=O)COc4ccc(Cl)c(F)c4)(CC2)[C@@H](O)C3)no1", "note": "[Compound 668, N-{(3S)-4-[2-(4-chloro-3-fluorophenoxy)acetamido]-3-hydroxybicyclo[2.2.2]octan-1-yl}-5-ethyl-1,2-oxazole-3-carboxamide]", "EC50": "< 50"},
      {"compound": "O=C(COc1ccc2c(c1)OC(F)(F)O2)NC12CC(NC(=O)c3ccccn3)(C1)C2", "note": "[Compound 400, N-(3-{2-[(2,2-difluoro-2H-1,3-benzodioxol-5-yl)oxy]acetamido}bicyclo[1.1.1]pentan-1-yl)pyridine-2-carboxamide]", "EC50": "250 to 1000"},
      {"compound": "O=C(COc1ccc(Cl)c(F)c1)NC12CC(NC(=O)c3coc4c3C(=O)CCC4)(C1)C2", "note": "[Compound 315, N-{3-[2-(4-chloro-3-fluorophenoxy)acetamido]bicyclo[1.1.1]pentan-1-yl}-4-oxo-4,5,6,7-tetrahydro-1-benzofuran-3-carboxamide]", "EC50": "250 to 1000"},
      {"compound": "O=C(COc1ccc(Cl)c(F)c1)NC12CCC(NC(=O)c3coc4c3C(=O)CCC4)(CC1)C(O)C2", "note": "(stereo not drawn) [Compound 222, N-{4-[2-(4-chloro-3-fluorophenoxy)acetamido]-2-hydroxybicyclo[2.2.2]octan-1-yl}-4-oxo-4,5,6,7-tetrahydro-1-benzofuran-3-carboxamide]", "EC50": "> 2000"},
      {"compound": "O=C(COc1ccc(Cl)c(F)c1)NC12CC(NC(=O)c3cnc(C4=CCC(O)CC4)o3)(C1)C2", "note": "(stereo not drawn) [Compound 163, N-{3-[2-(4-chloro-3-fluorophenoxy)acetamido]bicyclo[1.1.1]pentan-1-yl}-2-(4-hydroxycyclohex-1-en-1-yl)-1,3-oxazole-5-carboxamide]", "EC50": "1000 to 2000"},
      {"compound": "Cc1noc(C(=O)NC23CCC(NC(=O)COc4ccc(Cl)c(F)c4)(CC2)C(O)C3)n1", "note": "(stereo not drawn) [Compound 503, N-{4-[2-(4-chloro-3-fluorophenoxy)acetamido]-3-hydroxybicyclo[2.2.2]octan-1-yl}-3-methyl-1,2,4-oxadiazole-5-carboxamide]", "EC50": "50 to 250"},
      {"compound": "O=C(COc1ccc(Cl)c(F)c1)NC12CC(NC(=O)c3ccncc3F)(C1)C2", "note": "[Compound 817, N-{3-[2-(4-chloro-3-fluorophenoxy)acetamido]bicyclo[1.1.1]pentan-1-yl}-3-fluoropyridine-4-carboxamide]", "EC50": "> 2000"},
      {"compound": "O=C(COc1ccc(Cl)c(F)c1)NC12CC(NC(=O)c3cscn3)(C1)C2", "note": "[Compound 308, N-{3-[2-(4-chloro-3-fluorophenoxy)acetamido]bicyclo[1.1.1]pentan-1-yl}-1,3-thiazole-4-carboxamide]", "EC50": "250 to 1000"},
      {"compound": "Cc1ccc(S(=O)(=O)NC23CC(NC(=O)COc4ccc(Cl)c(F)c4)(C2)C3)cc1", "note": "[Compound 662, 2-(4-chloro-3-fluorophenoxy)-N-{3-[(4-methylbenzene-1-sulfonyl)amino]bicyclo[1.1.1]pentan-1-yl}acetamide]", "EC50": "> 2000"}
    ]}
  ]
}
